# Legend:
# Assay type in all cases: biochemical
# JAK1 = biological target: T1, JAK1 (Homo sapiens, UniProt P23458); assay: Z'-LYTE kinase assay, JAK1 tyrosine phosphorylation activity; settings: read-out: JAK 1 IC50
# T1 construct: 5 μl of catalytic domain recombinant Kinase enzyme+Tyr peptide substrate (Invitrogen, Calif.); purchased Invitrogen
# How it was run: (§1)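 Z'-LYTE format using the Tyr6 peptide with recombinant catalytic-domain kinase; 1 h kinase reaction and 1 h development, both at room temperature. IC50s derived from ratiometric FRET signal.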
# JAK2 = biological target: T2, JAK2 (Homo sapiens, UniProt O60674); assay: Z'-LYTE kinase assay, JAK2 tyrosine phosphorylation activity
# T2 construct: 5 μl of catalytic domain recombinant Kinase enzyme+Tyr peptide substrate (Invitrogen, Calif.); purchased Invitrogen
# T2 sequence (O60674 849-1124 limits assumed): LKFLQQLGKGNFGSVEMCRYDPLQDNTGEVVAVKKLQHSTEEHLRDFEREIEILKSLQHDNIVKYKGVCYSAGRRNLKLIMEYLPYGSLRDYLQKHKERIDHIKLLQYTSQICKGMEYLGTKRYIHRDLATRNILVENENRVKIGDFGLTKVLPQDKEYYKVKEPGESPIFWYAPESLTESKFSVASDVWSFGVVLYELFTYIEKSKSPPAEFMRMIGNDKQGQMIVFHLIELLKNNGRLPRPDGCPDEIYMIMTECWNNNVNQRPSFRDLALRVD
# How it was run: as §1
# JAK3 = biological target: T3, JAK3 (Homo sapiens, UniProt P52333); assay: Z'-LYTE kinase assay, JAK3 tyrosine phosphorylation activity
# T3 construct: 5 μl of catalytic domain recombinant Kinase enzyme+Tyr peptide substrate (Invitrogen, Calif.); purchased Invitrogen
# T3 sequence (P52333 822-1111 limits assumed): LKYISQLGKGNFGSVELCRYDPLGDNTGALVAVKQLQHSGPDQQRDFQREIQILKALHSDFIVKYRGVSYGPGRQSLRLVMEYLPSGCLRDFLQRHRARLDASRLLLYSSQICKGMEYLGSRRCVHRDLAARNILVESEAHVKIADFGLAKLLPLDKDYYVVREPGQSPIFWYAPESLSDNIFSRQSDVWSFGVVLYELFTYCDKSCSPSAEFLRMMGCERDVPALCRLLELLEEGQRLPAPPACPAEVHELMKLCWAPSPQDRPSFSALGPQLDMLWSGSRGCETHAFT
# How it was run: as §1
# TYK2 = biological target: T4, TYK2 (Homo sapiens, UniProt P29597); assay: Z'-LYTE kinase assay, TYK2 tyrosine phosphorylation activity
# T4 construct: 5 μl of catalytic domain recombinant Kinase enzyme+Tyr peptide substrate (Invitrogen, Calif.); purchased Invitrogen
# T4 sequence (P29597 897-1176 limits assumed): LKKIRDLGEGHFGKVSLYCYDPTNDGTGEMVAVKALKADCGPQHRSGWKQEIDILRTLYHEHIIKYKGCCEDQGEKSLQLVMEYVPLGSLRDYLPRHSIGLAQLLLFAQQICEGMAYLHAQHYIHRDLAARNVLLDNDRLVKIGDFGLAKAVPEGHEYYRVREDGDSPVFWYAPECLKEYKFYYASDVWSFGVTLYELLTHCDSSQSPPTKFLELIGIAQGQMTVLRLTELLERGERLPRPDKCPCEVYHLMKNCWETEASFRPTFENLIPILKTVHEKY
# How it was run: as §1
# T1 sequence (P23458 875-1153 limits assumed): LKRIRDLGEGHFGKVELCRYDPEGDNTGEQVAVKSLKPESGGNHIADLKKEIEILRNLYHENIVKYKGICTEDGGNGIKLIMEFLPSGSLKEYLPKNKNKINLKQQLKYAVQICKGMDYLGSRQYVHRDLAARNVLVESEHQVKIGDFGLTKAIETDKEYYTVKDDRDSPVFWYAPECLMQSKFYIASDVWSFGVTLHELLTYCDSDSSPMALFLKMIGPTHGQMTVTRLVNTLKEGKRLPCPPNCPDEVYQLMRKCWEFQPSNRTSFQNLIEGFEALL
IC50 (JAK1),IC50 (JAK2),IC50 (JAK3),IC50 (TYK2),SMILES
> 1 µM,> 1 µM,> 1 µM,> 1 µM,"CNC(=O)c1cnc(Nc2cccc(NC(C)=O)c2)nc1NCc1ccccc1 [Example 112, 2-(3-acetamidophenylamino)-4-(benzylamino)-N-methylpyrimidine-5-carboxamide]"
> 1 µM,> 1 µM,0.1 to 1 µM,0.1 to 1 µM,"NC(=O)c1cnc(Nc2ccc(Cl)c(NC(=O)NC3CCC3)c2)nc1NCc1ccccc1 [Example 107, 4-(benzylamino)-2-(4-chloro-3-(3-cyclobutylureido)phenylamino)pyrimidine-5-carboxamide]"
0.1 to 1 µM,0.01 to 0.1 µM,0.001 to 0.01 µM,0.1 to 1 µM,"C[C@@H](Nc1nc(Nc2cccc(N(C)C(=O)N3CCCC3)c2)ncc1C(N)=O)c1ccccc1 [Example 122, (R)-2-(3-(N-methylpyrrolidine-1-carboxamido)phenylamino)-4-(1-phenylethylamino)pyrimidine-5-carboxamide]"
0.01 to 0.1 µM,0.1 to 1 µM,0.01 to 0.1 µM,0.01 to 0.1 µM,"CC[C@H](C)Nc1nc(Nc2ccc(Cl)c(NC(=O)N3CCCC3)c2)ncc1C(N)=O [Example 176, (S)-4-(sec-butylamino)-2-(4-chloro-3-(pyrrolidine-1-carboxamido)phenylamino)pyrimidine-5-carboxamide]"
0.001 to 0.01 µM,0.001 to 0.01 µM,0.001 to 0.01 µM,0.001 to 0.01 µM,"CC(=O)Nc1cccc(Nc2ncc(C(N)=O)c(Nc3cccc4c3ccn4C)n2)c1 [Example 184, 2-(3-acetamidophenylamino)-4-(1-methyl-1H-indol-4-ylamino)pyrimidine-5-carboxamide]"
0.1 to 1 µM,> 1 µM,0.01 to 0.1 µM,0.01 to 0.1 µM,"CC(=O)Nc1cccc(Nc2cc(N[C@H]3CCc4ccccc43)c(C(N)=O)cn2)c1 [Example 335, (S)-6-(3-acetamidophenylamino)-4-(2,3-dihydro-1H-inden-1-ylamino)nicotinamide]"
0.1 to 1 µM,0.1 to 1 µM,0.01 to 0.1 µM,0.1 to 1 µM,"CC(=O)Nc1cccc(Nc2ncc(C(N)=O)c(N[C@@H](c3ccccc3)C3CC3)n2)c1 [Example 152, (R)-2-(3-acetamidophenylamino)-4-(cyclopropyl(phenyl)methylamino)pyrimidine-5-carboxamide]"
0.01 to 0.1 µM,0.01 to 0.1 µM,0.001 to 0.01 µM,0.001 to 0.01 µM,"NC(=O)c1cnc(Nc2cccc(NC(=O)[C@@H]3CCCO3)c2)nc1NCc1ccccc1 [Example 206, (S)-4-(benzylamino)-2-(3-(tetrahydrofuran-2-carboxamido)phenylamino)pyrimidine-5-carboxamide]"
0.1 to 1 µM,0.1 to 1 µM,0.001 to 0.01 µM,0.1 to 1 µM,"C[C@@H](Nc1cc(Nc2cccc(NC(=O)N3CCCC3)c2)ncc1C(N)=O)c1ccccc1 [Example 325, (R)-4-(1-phenylethylamino)-6-(3-(pyrrolidine-1-carboxamido)phenylamino)nicotinamide]"
0.1 to 1 µM,0.01 to 0.1 µM,0.001 to 0.01 µM,0.01 to 0.1 µM,"C[C@@H](Nc1nc(Nc2ccc(Cl)c(NC(=O)N3CCOCC3)c2)ncc1C(N)=O)c1ccccc1 [Example 183, (R)—N-(5-(5-carbamoyl-4-(1-phenylethylamino)pyrimidin-2-ylamino)-2-chlorophenyl)morpholine-4-carboxamide]"
> 1 µM,> 1 µM,> 1 µM,> 1 µM,"NC(=O)c1cnc(Nc2ccc(Cl)c(NC(=O)N3CCCC3)c2)nc1NCC1CCC1 [Example 263, 2-(4-chloro-3-(pyrrolidine-1-carboxamido)phenylamino)-4-(cyclobutylmethylamino)pyrimidine-5-carboxamide]"
0.1 to 1 µM,0.1 to 1 µM,0.01 to 0.1 µM,0.01 to 0.1 µM,"CC(=O)Nc1cccc(Nc2cc(NCC(C)C)c(C(N)=O)cn2)c1 [Example 323, 6-(3-acetamidophenylamino)-4-(isobutylamino)nicotinamide]"
0.1 to 1 µM,0.01 to 0.1 µM,0.01 to 0.1 µM,0.1 to 1 µM,"CN(C(=O)N1CCCC1)c1cccc(Nc2ncc(C(N)=O)c(NCC3CC3)n2)c1 [Example 127, 4-(cyclopropylmethylamino)-2-(3-(N-methylpyrrolidine-1-carboxamido)phenylamino)pyrimidine-5-carboxamide]"
> 1 µM,0.01 to 0.1 µM,0.01 to 0.1 µM,0.1 to 1 µM,"CC(=O)Nc1cc(Nc2ncc(C(N)=O)c(Nc3cccc4nn(C)cc34)n2)ccc1OCCN(C)C [Example 229, 2-(3-acetamido-4-(2-(dimethylamino)ethoxy)phenylamino)-4-(2-methyl-2H-indazol-4-ylamino)pyrimidine-5-carboxamide]"
0.01 to 0.1 µM,0.001 to 0.01 µM,0.001 to 0.01 µM,0.01 to 0.1 µM,"CC(=O)Nc1cc(Nc2ncc(C(N)=O)c(Nc3cccc4nsnc34)n2)ccc1OCCN1CCCC1 [Example 227, 2-(3-acetamido-4-(2-(pyrrolidin-1-yl)ethoxy)phenylamino)-4-(benzo[c][1,2,5]thiadiazo-4-ylamino)pyrimidine-5-carboxamide]"
0.01 to 0.1 µM,0.01 to 0.1 µM,0.001 to 0.01 µM,0.001 to 0.01 µM,"NC(=O)c1cnc(Nc2cccc(NC(=O)N3CCCC3)c2)nc1NCC1CC1 [Example 123, 4-(cyclopropylmethylamino)-2-(3-(pyrrolidine-1-carboxamido)phenylamino)pyrimidine-5-carboxamide]"
> 1 µM,0.1 to 1 µM,0.01 to 0.1 µM,0.1 to 1 µM,"NC(=O)c1cnc(Nc2ccc(Cl)c(NC(=O)N3CCCC3)c2)nc1NCc1cccc(Cl)c1 [Example 173, 2-(4-chloro-3-(pyrrolidine-1-carboxamido)phenylamino)-4-(3-chlorobenzylamino)pyrimidine-5-carboxamide]"
0.1 to 1 µM,0.1 to 1 µM,0.01 to 0.1 µM,0.1 to 1 µM,"COCC(=O)Nc1cc(Nc2ncc(C(N)=O)c(N[C@H](C)c3ccccc3)n2)ccc1Cl [Example 109, (R)-2-(4-chloro-3-(2-methoxyacetamido)phenylamino)-4-(1-phenylethylamino)pyrimidine-5-carboxamide]"
> 1 µM,> 1 µM,0.1 to 1 µM,0.1 to 1 µM,"C[C@@H](Nc1nc(Nc2ccc(Cl)c(NC(=O)NC3CCC3)c2)ncc1C(N)=O)c1ccccc1 [Example 111, (R)-2-(4-chloro-3-(3-cyclobutylureido)phenylamino)-4-(1-phenylethylamino)pyrimidine-5-carboxamide]"
0.01 to 0.1 µM,0.001 to 0.01 µM,0.001 to 0.01 µM,0.01 to 0.1 µM,"CC(=O)Nc1cc(Nc2ncc(C(N)=O)c(NCc3cccc(F)c3)n2)ccc1OCCN1CCCC1 [Example 223, 2-(3-acetamido-4-(2-(pyrrolidin-1-yl)ethoxy)phenylamino)-4-(3-fluorobenzylamino)pyrimidine-5-carboxamide]"
0.1 to 1 µM,0.1 to 1 µM,0.01 to 0.1 µM,0.01 to 0.1 µM,"CC(=O)Nc1cccc(Nc2ncc(C(N)=O)c(NCc3ccncc3)n2)c1 [Example 189, 2-(3-acetamidophenylamino)-4-(pyridin-4-ylmethylamino)pyrimidine-5-carboxamide]"
0.01 to 0.1 µM,0.01 to 0.1 µM,0.01 to 0.1 µM,0.01 to 0.1 µM,"CNC(=O)c1cnc(Nc2cccc(NC(=O)COC)c2)nc1NC1Cc2ccccc2C1 [Example 114, 4-(2,3-dihydro-1H-inden-2-ylamino)-2-(3-(2-methoxyacetamido)phenylamino)-N-methylpyrimidine-5-carboxamide]"
> 1 µM,> 1 µM,0.01 to 0.1 µM,0.1 to 1 µM,"CNC(=O)Nc1ccc(F)c(Nc2ncc(C(N)=O)c(NCc3ccccc3)n2)c1 [Example 200, 4-(benzylamino)-2-(2-fluoro-5-(3-methylureido)phenylamino)pyrimidine-5-carboxamide]"
0.01 to 0.1 µM,0.001 to 0.01 µM,0.001 to 0.01 µM,0.01 to 0.1 µM,"CC(=O)Nc1cc(Nc2ncc(C(N)=O)c(Nc3cccc4c3cnn4C)n2)ccc1OCCN1CCCC1 [Example 256, 2-(3-acetamido-4-(2-(pyrrolidin-1-yl)ethoxy)phenylamino)-4-(1-methyl-1H-indazol-4-ylamino)pyrimidine-5-carboxamide]"
> 1 µM,> 1 µM,0.1 to 1 µM,> 1 µM,"COc1ccc(Nc2ncc(C(N)=O)c(NCc3cccc(F)c3)n2)cc1N(C)C(=O)N1CCCC1 [Example 240, 4-(3-fluorobenzylamino)-2-(4-methoxy-3-(N-methylpyrrolidine-1-carboxamido)phenylamino)pyrimidine-5-carboxamide]"
0.1 to 1 µM,0.1 to 1 µM,0.01 to 0.1 µM,0.1 to 1 µM,"CN(C(=O)N1CCCC1)c1cc(Nc2ncc(C(N)=O)c(NCc3ccccc3)n2)ccc1Cl [Example 241, 4-(benzylamino)-2-(4-chloro-3-(N-methylpyrrolidine-1-carboxamido)phenylamino)pyrimidine-5-carboxamide]"

# Reference: patent US8853230B2, “Inhibitors of JAK” (Portola Pharmaceuticals, Inc., priority 2009, dated 2014)
